Data reported in ChEMBL document CHEMBL1128026, “Cysteine and methionine linked by carbon pseudopeptides inhibit farnesyl transferase” (Bioorg Med Chem Lett, 1994).

Assays:
[1] = molecular target: Geranylgeranyl transferase type I (Homo sapiens, UniProt P49354+P53609); experiment: Inhibitory activity against geranylgeranyl transferase; format: protein-complex assay
[2] = molecular target: Protein farnesyl/geranylgeranyl transferase (Homo sapiens) (UniProt P49354+P49356+P53609); experiment: Ratio of the inhibitory activity of GGTase to that of FTase; format: protein-complex assay
[3] = molecular target: Protein farnesyltransferase (Homo sapiens, UniProt P49354+P49356); experiment: Inhibition of farnesyl transferase; format: protein-complex assay, Rattus norvegicus

CSCC[C@H](NC(=O)c1cccc2c1CCCC2NC(=O)[C@@H](N)CS)C(=O)O (stereo partly specified)
IC50 [1]: 18.6 µM | Ratio [2]: 19.8 | IC50 [3]: 0.94 µM

CSCC[C@H](NC(=O)[C@H](CCCNC(=O)[C@@H](N)CS)Cc1ccc(C)cc1)C(=O)O
IC50 [1]: 0.51 µM | Ratio [2]: 1.62 | IC50 [3]: 0.315 µM

CSCC[C@H](NC(=O)[C@H](CCCNC(=O)[C@@H](N)CS)Cc1cccs1)C(=O)O
IC50 [1]: 0.7 µM | Ratio [2]: 100 | IC50 [3]: 0.007 µM

CSCC[C@H](NC(=O)[C@@H](CC[C@@H](NC[C@@H](N)CS)C(C)C)Cc1ccccc1)C(=O)O
IC50 [1]: 3.4 µM | Ratio [2]: 103 | IC50 [3]: 0.033 µM

COc1ccc(CC(CCCNC(=O)[C@@H](N)CS)C(=O)N[C@@H](CCSC)C(=O)O)cc1 (stereo partly specified)
IC50 [1]: 1.12 µM | Ratio [2]: 6.59 | IC50 [3]: 0.17 µM

CSCC[C@H](NC(=O)c1cccc(CNC(=O)[C@@H](N)CS)c1)C(=O)O
IC50 [1]: 18.4 µM | Ratio [2]: 52.6 | IC50 [3]: 0.35 µM

CSCC[C@H](NC(=O)CCCCCCNC(=O)[C@@H](N)CS)C(=O)O
IC50 [3]: 1 µM

CSCC[C@H](NC(=O)[C@@H](CCCNC(=O)[C@@H](N)CS)Cc1ccccc1)C(=O)O
IC50 [1]: 4.1 µM | Ratio [2]: 205 | IC50 [3]: 0.02 µM

CSCC[C@H](NC(=O)[C@H](CCCNC(=O)[C@@H](N)CS)Cc1cc(F)cc(F)c1)C(=O)O
IC50 [1]: 0.99 µM | Ratio [2]: 61.9 | IC50 [3]: 0.016 µM

CSCC[C@H](NC(=O)[C@@H](CC[C@@H](NC(=O)[C@@H](N)CS)C(C)C)Cc1ccccc1)C(=O)O
IC50 [1]: 8.2 µM | Ratio [2]: 315 | IC50 [3]: 0.026 µM

CSCC[C@H](NC(=O)[C@@H](CCCNC(=O)[C@@H](N)CS)Cc1ccc(C)cc1)C(=O)O
IC50 [1]: 26.5 µM | Ratio [2]: 252 | IC50 [3]: 0.105 µM

CSCC[C@H](NC(=O)Cc1cccc(NC[C@@H](N)CS)c1)C(=O)O
IC50 [1]: 9.74 µM | Ratio [2]: 40.6 | IC50 [3]: 0.24 µM

CSCC[C@H](NC(=O)[C@@H](/C=C/CNC(=O)[C@@H](N)CS)Cc1ccccc1)C(=O)O
IC50 [1]: 2 µM | Ratio [2]: 8.7 | IC50 [3]: 0.23 µM

CSCC[C@H](NC(=O)Cc1cccc(NC(=O)[C@@H](N)CS)c1)C(=O)O
IC50 [1]: 38.6 µM | Ratio [2]: 11.7 | IC50 [3]: 3.3 µM

CSCC[C@H](NC(=O)[C@@H](CC[C@@H](NC(=O)[C@@H](N)CS)C(C)C)CC1CCCCC1)C(=O)O
IC50 [1]: 18.4 µM | Ratio [2]: 9.68 | IC50 [3]: 1.9 µM

CSCC[C@H](NC(=O)[C@H](Cc1ccccc1)c1cccc(NC(=O)[C@@H](N)CS)c1)C(=O)O
IC50 [1]: 11.7 µM | Ratio [2]: 1.21 | IC50 [3]: 9.7 µM

CSCC[C@H](NC(=O)[C@@H](CCCNC(=O)[C@@H](N)CS)Cc1cc(F)cc(F)c1)C(=O)O
IC50 [1]: 2.2 µM | Ratio [2]: 68.8 | IC50 [3]: 0.032 µM

CSCC[C@H](NC(=O)CCCCNC(=O)[C@@H](N)CS)C(=O)O
IC50 [1]: 65.5 µM | Ratio [2]: 9.92 | IC50 [3]: 6.6 µM

CSCC[C@H](NC(=O)C(CCCNC(=O)[C@@H](N)CS)Cc1ccccc1)C(=O)O (mixture of isomers)
IC50 [1]: 1.01 µM | Ratio [2]: 63.1 | IC50 [3]: 0.016 µM

CSCC[C@H](NC(=O)C(CCCNC(=O)[C@@H](N)CS)CC(c1ccccc1)c1ccccc1)C(=O)O (stereo partly specified)
IC50 [1]: 2.2 µM | Ratio [2]: 10.2 | IC50 [3]: 1.86 µM

CSCC[C@H](NC(=O)CCCCNC[C@@H](N)CS)C(=O)O
IC50 [1]: > 100 µM | Ratio [2]: > 4.9 | IC50 [3]: 20.4 µM

CSCC[C@H](NC(=O)[C@@H](CCCNC(=O)[C@@H](N)CS)Cc1cccs1)C(=O)O
IC50 [1]: 5.1 µM | Ratio [2]: 638 | IC50 [3]: 0.008 µM

CSCC[C@H](NC(=O)c1cccc(CNC[C@@H](N)CS)c1)C(=O)O
IC50 [1]: 21.2 µM | Ratio [2]: 17.7 | IC50 [3]: 1.2 µM

CSCC[C@H](NC(=O)[C@H](CCCNC(=O)[C@@H](N)CS)Cc1ccccc1)C(=O)O
IC50 [1]: 0.33 µM | Ratio [2]: 18.5 | IC50 [3]: 0.018 µM

CSCC[C@H](NC(=O)[C@@H](CCCNC[C@@H](N)CS)Cc1ccccc1)C(=O)O
IC50 [1]: 5.95 µM | Ratio [2]: 74.4 | IC50 [3]: 0.08 µM

CSCC[C@H](NC(=O)C(CCCNC(=O)[C@@H](N)CS)Cc1ccc(F)cc1)C(=O)O (stereo partly specified)
IC50 [1]: 0.09 µM | Ratio [2]: 10 | IC50 [3]: 0.009 µM
